Consider 1 compound from article PMC5216119, “An allosteric conduit facilitates dynamic multisite substrate recognition by the SCF^Cdc4 ubiquitin ligase” (Nature Communications, 2017).

Assay [1] deals with T1, Cdc4^WD40 (Saccharomyces cerevisiae, UniProt P07834).
T1 sequence (P07834 367-744): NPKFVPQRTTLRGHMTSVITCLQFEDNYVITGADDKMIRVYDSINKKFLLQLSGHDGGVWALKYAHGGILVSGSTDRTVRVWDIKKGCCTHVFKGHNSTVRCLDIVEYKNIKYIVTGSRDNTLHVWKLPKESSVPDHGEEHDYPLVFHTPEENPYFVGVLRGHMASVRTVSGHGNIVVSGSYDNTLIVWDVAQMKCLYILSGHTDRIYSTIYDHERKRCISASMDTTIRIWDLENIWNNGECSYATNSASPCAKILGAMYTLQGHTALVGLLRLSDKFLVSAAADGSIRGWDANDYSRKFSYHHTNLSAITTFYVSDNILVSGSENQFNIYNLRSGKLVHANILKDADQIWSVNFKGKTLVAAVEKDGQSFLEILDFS
Description: Isothermal titration calorimetry (ITC) with Cdc4^WD40. Also noted: species or system yeast. Conditions: 20 °C, cell 30 μM Cdc4^WD40, syringe 100 μM pSic1 or 200 μM SCF-I2, 50 mM Na2HPO4 pH 7.2, 150 mM NaCl, 2 mM β-mercaptoethanol, single-site model, repeated twice, read-out: Kd value for binding Cdc4^WD40 (ITC). The source says:
We determined the effects of substrate binding on the isolated WD40 domain of Cdc4 (Cdc4^WD40), which is more amenable to NMR due to its size (40 kDa) than the minimal Cdc4-Skp1 complex (∼70 kDa). The N-terminal targeting region of Sic1 (residues 1-90, called Sic1^1-90), which contains 7 of the 9 Sic1 CPD sites and is sufficient for Cdc4 binding, was phosphorylated to completion by Cln2-Cdc28-Cks1 kinase (called pSic1). We used isothermal titration calorimetry (ITC) to determine the affinity of Cdc4^WD40 for pSic1 and SCF-I2 (Supplementary Fig. 1a–c). […] The Kd value for SCF-I2 binding Cdc4^WD40 was 0.6±0.02 μM, concordant with the ∼2 μM Ki value determined for SCF-I2-Cdc4-Skp1 by a fluorescence polarization competition assay.
ITC experiments were performed using VP-ITC and iTC200 microcalorimeters (MicroCal Inc., Northampton, MA) at 20 °C with the sample cell containing 30 μM Cdc4^WD40 and the syringe loaded with 100 μM pSic1 or 200 μM SCF-I2. The samples were dialysed in buffer containing 50 mM Na2HPO4, pH 7.2, 150 mM NaCl, 2 mM β-mercaptoethanol. Runs were performed using 13–20 injections at an interval of 120 s and each binding experiment was repeated twice. Using the Origin software provided by MicroCal Inc., heat associated with each injection was integrated and thermodynamic parameters were extracted by fitting the data to a single-site binding model.
(In ITC the heat of successive injections is recorded.)

The target in assay [2] is Skp1-Cdc4 complex (Saccharomyces cerevisiae, UniProt P07834+P52286). The assay can be described thus: Fluorescence polarization inhibition by SCF-I2 of Ash1 peptide binding to Skp1-Cdc4. Also noted: species or system yeast. The note with it: compared with Ash1^18pT286/pT290 or Ash1^18pT286/pT290/pS294 peptides. (In general: In fluorescence polarisation assays a small probe gives low polarisation when free and higher when bound to something large.)
Chain of Skp1-Cdc4 complex (P07834 whole entry): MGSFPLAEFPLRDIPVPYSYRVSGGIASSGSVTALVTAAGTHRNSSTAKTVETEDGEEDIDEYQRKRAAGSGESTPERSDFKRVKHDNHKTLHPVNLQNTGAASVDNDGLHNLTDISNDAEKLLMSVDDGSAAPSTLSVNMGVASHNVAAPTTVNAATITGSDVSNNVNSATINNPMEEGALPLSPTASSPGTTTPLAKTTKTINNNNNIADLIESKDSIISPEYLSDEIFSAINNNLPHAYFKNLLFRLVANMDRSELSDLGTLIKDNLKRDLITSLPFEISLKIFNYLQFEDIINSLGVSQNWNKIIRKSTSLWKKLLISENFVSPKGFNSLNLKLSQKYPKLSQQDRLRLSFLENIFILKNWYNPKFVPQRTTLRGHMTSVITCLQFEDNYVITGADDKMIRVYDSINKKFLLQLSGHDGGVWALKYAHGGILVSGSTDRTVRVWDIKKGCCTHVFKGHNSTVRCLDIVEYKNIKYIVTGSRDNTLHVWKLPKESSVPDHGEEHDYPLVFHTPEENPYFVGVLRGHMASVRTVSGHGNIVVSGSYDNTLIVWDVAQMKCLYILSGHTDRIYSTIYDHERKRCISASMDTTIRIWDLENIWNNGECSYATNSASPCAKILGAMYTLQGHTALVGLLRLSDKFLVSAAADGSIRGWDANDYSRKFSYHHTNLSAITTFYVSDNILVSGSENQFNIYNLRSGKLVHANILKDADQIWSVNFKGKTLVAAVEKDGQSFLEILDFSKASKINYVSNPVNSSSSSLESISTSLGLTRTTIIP
Chain of Skp1-Cdc4 complex (P52286 whole entry partner): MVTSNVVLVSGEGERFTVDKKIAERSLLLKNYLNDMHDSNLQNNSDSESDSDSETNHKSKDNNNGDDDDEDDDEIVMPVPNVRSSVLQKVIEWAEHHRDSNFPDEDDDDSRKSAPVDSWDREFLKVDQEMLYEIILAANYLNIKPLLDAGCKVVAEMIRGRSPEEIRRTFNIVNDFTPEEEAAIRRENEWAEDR
Description: (f) Fluorescence polarization of the fluorescein-labelled Ash1 peptides (circle, pT286/pT290/pS294, square, pT286/pT290, triangle, pT290/pS294, inverted triangle doubly phosphorylated CycE peptide) in the presence of increasing concentrations of the recombinant Skp1-Cdc4 complex (mP, millipolarization unit). (g) Fluorescence polarization of the fluorescein-labelled Ash1 peptides (circle, pT286/pT290/pS294, square, pT286/pT290, triangle, pT290/pS294, inverted triangle, doubly phosphorylated CycE peptide) in the presence of increasing concentrations of the SCF-I2 inhibitor.
Fluorescence polarization assays containing 0.21 μM Skp1-Cdc4 complex and 10 nM fluorescently labelled cyclin E-derived or Ash1-derived phosphopeptides in 10 mM HEPES (pH 7.5), 40 mM NaCl, 0.1 mg ml^−1 BSA and 1 mM DTT in a final volume of 23.5 μl per well were performed on an Analyst HT plate reader (Molecular Devices Corp., Sunnyvale CA).

For assay [3], the target named is Cdc4-Skp1. Conditions: read-out: Ki value for SCF-I2-Cdc4-Skp1 by fluorescence polarization competition assay; cited from earlier work.
Assay [4] concerns the target T1, Cdc4^WD40. Conditions: compared to a singly phosphorylated high-affinity CPD of similar affinity for Cdc4; cited from earlier work. The source says:
The phenomenon of allostery, whereby ligand binding at one site alters interactions at a physically distant site, allows for complex control of protein function. […] SCF-I2 elicits this allosteric effect through structural changes that occlude the P−2 region of the CPD pocket.

For the compound `O=C(O)c1ccc2ccccc2c1-c1c(C(=O)O)ccc2ccccc12` [SCF-I2], in assay [1], the dissociation constant Kd – broadly, the concentration at which binding is half-saturated – was determined as 0.6 ± 0.02 µM. Moreover, in assay [2], the “fold higher potency of SCF-I2 for inhibiting Ash1^18pT290/pS294 binding” value is reported as 10 fold. The Ki (in general, a measure of affinity in units of concentration, obtained from inhibition or displacement) in assay [3] is around 2 µM. In addition, the “fold lower potency of SCF-I2 towards full-length Sic1” value in assay [4] was 10 fold.
